According to article PMC7017153, “Assembly of a G-Quadruplex Repair Complex by the FANCJ DNA Helicase and the REV1 Polymerase” (Genes, 2019):
“Also recorded” adds a separate entry of the source. One block for each molecule: values may come before it. Where no end group is shown, it is not given here. The star is where a group is joined. Biotin = O=C1N[C@H]2[C@H](CS[C@H]2CCCCC(=O)*)N1

Experiments:
[1] = Circular dichroism (CD) of G4 DNA in KCl; type: physicochemical; details: 20 mM boric acid pH 7.5, 150 mM KCl, 25 °C, 320-220 nm
Method: (§1) CD measurements were collected on a JASCO J-810 spectropolarimeter (JASCO Inc., Easton, MD, USA) equipped with a PTC-423S peltier system. G4 DNA samples were dialyzed into 20 mM Boric Acid pH 7.5, 150 mM KCl (or NaCl). CD spectra were collected from 320 nm to 220 nm at 25 °C. Five traces were obtained for each DNA substrate, and a reference scan of the buffer alone was subtracted from the averaged CD signal.

[2] = Circular dichroism (CD) of G4 DNA in NaCl; type: physicochemical; details: 150 mM NaCl, 25 °C, 320-220 nm
Method: as §1

[3] = system: human REV1 CTD (amino acid residues 1157 to 1251); experiment: BLI, biotinylated FANCJ PIP peptides with REV1 CTD; type: binding; details: Buffer H, 25 °C; for BLI binding signal (Δλ), REV1 CTD versus PCNA: 1.3 µM PCNA trimer
Description: (§2) The pEB022 plasmid used to produce full-length human PCNA protein was kindly provided by Dr. M. Todd Washington (University of Iowa). A codon-optimized construct (VB170525-1265 nra) used to express human REV1 CTD (amino acid residues 1157 to 1251) in E. coli was synthesized by VectorBuilder Inc. (Chicago, IL, USA). Plasmids were transformed into NiCo21(DE3) competent cells from New England Biolabs (Ipswich, MA, USA). Single bacteria colonies were selected on LB agar plates that were supplemented with 50 µg/mL of kanamycin (PCNA) or carbenicillin (REV1 CTD) to inoculate starter cultures in LB broth. Overnight growths were diluted 1:50 into 4 × 1L LB (37 °C, 250 rpm). Protein expression was induced by adding IPTG to 1 mM when the optical density at 600 nm reached 0.4 absorbance units. Cells were cultured overnight at 16 °C. They were harvested 16 h post induction by centrifugation (6000 × g at 4 °C) for 60 min, and the pellets were resuspended in 20 mM NaPi (pH 7.5), 300 mM NaCl, 30 mM imidazole, 1 mM DTT, 5% (v/v) glycerol, 1% NP-40, and 1 mM PMSF.
(§3) BLI assays were performed on a BLItz instrument (Pall Fortébio, Fremont, CA, USA). Streptavidin-coated biosensors were purchased from Pall Fortébio (Lot 1906281). Biosensors were hydrated in Buffer H for 10 min, and the baseline optical interference was recorded. A total of 150 nM of biotinylated G4 DNA or FANCJ PIP peptide was loaded onto the sensors over 2 min, after which they were washed with Buffer H. Binding reactions were initiated by placing the biosensors in analyte solutions at the indicated concentrations. After their interactions had reached an equilibrium, the sensors were returned to buffer to monitor dissociation of the complexes. Experiments were repeated in triplicate. BLI binding isotherms were generated by plotting the plateau values of the association phase versus total analyte concentration. These curves were fit to a 1:1 interaction model, as described above. The parameters reported were obtained from the average and 95% confidence interval of the three data sets.
PIP-containing proteins bind directly to PCNA to coordinate DNA replication and repair. However, it is now evident that noncanonical PIP-boxes can serve as hotspots to recruit other proteins, including the REV1 translesion synthesis polymerase and the MLH1 mismatch repair protein [54, 55, 56, 64]. To test if the PIP-like motif in FANCJ functions as a PIP or an REV1-interacting region (RIR), we compared how this peptide bound to PCNA versus REV1 by BLI. Recombinant human PCNA protein and the C-terminal domain (CTD) of human REV1 were purified from E. coli (Figure S3A). Biotinylated FANCJ PIP was immobilized on a streptavidin-coated biosensor and experiments were performed as described above. […] Because Δλ is related to the thickness of the biolayer, this value reports the accumulation of mass on the sensor tip. […] This difference is further magnified as REV1 CTD has a molecular mass of ~12 kDa, while a human PCNA trimer is about seven times its size, at ~86 kDa. Next, we tested the effects of a FANCJ PIP AA peptide on its interactions with REV1 CTD and PCNA. The consecutive consensus aromatic residues (YF) within the potential PIP-motif were replaced with alanine amino acids (AA). […] BLI experiments with PIP and PIP AA were repeated as a function of REV1 CTD and PCNA concentration to measure their corresponding equilibrium constant values.

[4] = system: full-length human PCNA; experiment: BLI, biotinylated FANCJ PIP peptides with PCNA; type: binding; details: Buffer H, 25 °C; for Binding to PCNA: BLI
Description: as §2, §3
PIP-containing proteins bind directly to PCNA to coordinate DNA replication and repair. However, it is now evident that noncanonical PIP-boxes can serve as hotspots to recruit other proteins, including the REV1 translesion synthesis polymerase and the MLH1 mismatch repair protein [54, 55, 56, 64]. To test if the PIP-like motif in FANCJ functions as a PIP or an REV1-interacting region (RIR), we compared how this peptide bound to PCNA versus REV1 by BLI. Recombinant human PCNA protein and the C-terminal domain (CTD) of human REV1 were purified from E. coli (Figure S3A). Biotinylated FANCJ PIP was immobilized on a streptavidin-coated biosensor and experiments were performed as described above. […]

[5] = target: bioFANCJ PIP AA (human); experiment: BLI; 150 nM biotinylated FANCJ PIP or PIP AA peptide loaded on streptavidin biosensors (BLItz); REV1 CTD (1.8 uM) or PCNA trimer (1.3 uM) as analyte, also as a function of analyte concentration; Buffer H (20 mM HEPES pH 7.5, 150 mM KCl, 5 mM TCEP, 5% glycerol), 25 C; plateau values fit to a 1:1 model
[6] = target: T1, human REV1 CTD (amino acid residues 1157 to 1251) (human, UniProt Q9UBZ9 1157-1251); experiment: as above; details: both partners purified
T1 construct: REV1 translesion DNA synthesis polymerase, human, C-terminal domain, residues 1157-1251; codon-optimized construct; also called C-terminal domain (CTD) of human REV1; source: E. coli NiCo21(DE3), purified (Ni2+ IMAC, heparin)
T1 sequence (looked up): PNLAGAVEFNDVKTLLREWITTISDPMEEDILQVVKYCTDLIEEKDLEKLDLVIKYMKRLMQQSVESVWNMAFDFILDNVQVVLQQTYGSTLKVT

[7] = target: T2, full-length human PCNA protein (human, UniProt P12004 1-261); experiment: as above; details: both partners purified
T2 construct: PCNA sliding clamp, human, full length; made from plasmid pEB022; also called PCNA trimer; source: E. coli NiCo21(DE3), purified (Ni2+ IMAC, heparin)

[8] = biotinylated peptide 150 nM, 1.8 µM REV1 CTD
[9] = BLI isotherms, PIP AA versus wild-type PIP

T2 sequence (P12004 whole entry): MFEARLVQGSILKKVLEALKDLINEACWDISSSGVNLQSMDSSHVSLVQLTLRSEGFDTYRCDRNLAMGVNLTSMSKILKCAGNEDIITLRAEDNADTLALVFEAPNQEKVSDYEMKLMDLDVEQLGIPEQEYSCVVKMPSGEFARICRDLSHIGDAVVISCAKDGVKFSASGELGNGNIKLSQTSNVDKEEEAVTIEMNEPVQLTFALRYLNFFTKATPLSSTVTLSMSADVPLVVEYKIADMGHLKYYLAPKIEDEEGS

Molecule: (TTAGGG)4: human telomeric G4 DNA, TTAGGGTTAGGGTTAGGGTTAGGG
G4 conformation by CD (KCl) [1]: folded into a hybrid conformation | G4 conformation by CD (NaCl) [2]: adopted an anti-parallel configuration in NaCl buffer

Molecule: Biotin-SWSSFNSLGQYFTGKIP [FANCJ PIP, Biotin-…, FANCJ amino acids 1001–1017]
Binding to REV1 CTD ([3]; BLI): bound to REV1 CTD | BLI binding signal (Δλ), REV1 CTD versus PCNA [3, 8]: REV1 CTD produced a larger binding signal than PCNA at similar molar concentrations of protein; also recorded: Interactions with REV1 CTD, however, produced a stronger binding signal than PCNA | Binding to PCNA [4]: bound to REV1 CTD and to PCNA

Molecule: Biotin-SWSSFNSLGQAATGKIP [FANCJ PIP AA, Biotin-…, YF replaced with AA]
Change in affinity for REV1 CTD by PIP AA mutation [3, 9]: small increase in affinity for REV1 CTD | BLI binding signal (Δλ), REV1 CTD versus PCNA [3, 8]: more REV1 CTD bound to the mutant peptide versus PCNA | BLI binding signal, PIP AA versus wild-type PIP, REV1 CTD [3, 8]: larger binding signals compared to the wild-type PIP sequence for REV1 CTD | Change in affinity (binding constant) for PCNA by PIP AA mutation [4, 9]: binding of PCNA was weakened twofold; also recorded: reduced the binding constant for PCNA by half | Binding to PCNA [4]: still retained residual interactions with PCNA | BLI binding signal, PIP AA versus wild-type PIP, PCNA ([4]; biotinylated peptide 150 nM, 1.3 µM PCNA trimer): larger binding signals compared to the wild-type PIP sequence

Results, then the molecule that gave them:

fold weakening of the equilibrium constant against wild-type FANCJ PIP [5]: 2 fold
Molecule: full-length human PCNA protein (from UniProt P12004 1-261)

binding result [6]: binds | binding result [7]: binds
B1: bioFANCJ PIP (peptide)
peptide: Biotin-SWSSFNSLGQYFTGKIP
notes: FANCJ helicase, human, PIP-like motif, amino acids 1001-1017; Held on streptavidin biosensors by the N-terminal biotin; also called biotinylated FANCJ PIP; wild-type PIP; source: synthetic peptide (Genscript)
